Measured values from the SangsterLogP compilation.

Assay: method code SF-HPLC, from DOI: 10.1016/j.ejps.2004.08.007, PMID: 15567286
Conditions: pH 7.4

| logD | SMILES |
| --- | --- |
| 1.5 | CC(C)(C)COC(=O)Nc1cc[nH]c(=O)n1 |
| 2.3 | CCCCCCOC(=O)Nc1cc[nH]c(=O)n1 |
| 2.9 | O=C(Nc1cc[nH]c(=O)n1)OC12CC3CC(CC(C3)C1)C2 |
| -0.09 | CCOC(=O)Nc1cc[nH]c(=O)n1 |
| -0.55 | COC(=O)Nc1cc[nH]c(=O)n1 |
| 3.3 | CCCCCCCCOC(=O)Nc1cc[nH]c(=O)n1 |
| 1.1 | CC(C)COC(=O)Nc1cc[nH]c(=O)n1 |
| 1.3 | O=C(Nc1cc[nH]c(=O)n1)OCc1ccccc1 |
| 1.1 | CCCCOC(=O)Nc1cc[nH]c(=O)n1 |

Assay: method code SF, from DOI: 10.1016/j.ejps.2004.08.007, PMID: 15567286
Conditions: not given

| logP | SMILES |
| --- | --- |
| 1.52 | O=Cc1ccc(C(=O)O)cc1 |
